Blank lines part the entries; values can stand above or below the compound they belong to.
Key:
[1] = Stability assay in rabbit aqueous humor; assay type: in vitro ADME; settings: 1 μM in rabbit aqueous humor; for half-life at 1 μM: read-out: t½ Rabbit AH
Procedure: (§1) Compounds are incubated at a concentration of 1 μM in rabbit aqueous humor (AH) or rabbit vitreous (VH). Samples are taken at fixed time points and the remnant of compound is determined by LC-MS/MS after protein precipitation.

[2] = Stability assay in rabbit vitreous humor; assay type: in vitro ADME; settings: 1 μM in rabbit vitreous; for half-life at 1 μM: rabbit vitreous humor, read-out: t½ Rabbit VH
Procedure: as §1

[3] = Pharmacokinetics after intravenous and oral administration in mice; assay type: in vivo, male CD-1 mice
Procedure: The bioavailability of compound 1 was evaluated after intravenous and oral dosing in male CD-1 mice. The compound was dosed at 0.1 mg/kg intravenously and 1 mg/kg orally. Plasma levels were determined by LC-MS/MS and pharmacokinetic parameters were estimated by a non-compartmental model using WinNonlin v5.2.1 software.

human hepatocytes = assay: Stability assay in human hepatocytes; assay type: in vitro ADME; settings: 1 μM
Procedure: Compounds are incubated at a concentration of 1 μM with human hepatocytes (2 10^6 cells/ml in buffer solution). At fixed time points (ex: 1, 30, 60 & 120 minutes), an incubation mixture (200 μl) is cooled down on ice and 100 μl of acetonitrile is added. After vortex-mixing, the sample is centrifuged for 5 minutes at 16000 rpm. The remnant of compound in each sample is determined by LC-PDA-MS/MS analysis and half-life of the compound is subsequently calculated. Formation of the acid metabolite resulting from ester hydrolysis can be performed simultaneously. Peak areas for appearance of the acid are first recorded, and the corresponding concentrations are then back-calculated from calibration curve.
When evaluated under such conditions, compounds of the invention are rapidly degraded in the corresponding acid (primary metabolite).

Compound: COC(=O)c1ccc(NC(=O)c2cccc(-c3cc(C(=O)Nc4ccncc4F)ccc3CN)c2)cc1C [Compound 5, methyl 4-({3-[2-(aminomethyl)-5-[(3-fluoropyridin-4-yl)carbamoyl]phenyl]phenyl}amido)-2-methylbenzoate]
t½ Rabbit AH [1]: >60 min
t½ Rabbit VH [2]: >60 min

Compound: COC(=O)c1ccc(NC(=O)c2cccc(-c3cc(C(=O)Nc4ccncc4F)ccc3CN)c2)cc1F [Compound 3, methyl 4-({3-[2-(aminomethyl)-5-[(3-fluoropyridin-4-yl)carbamoyl]phenyl]phenyl}amido)-2-fluorobenzoate]
t½ Rabbit AH [1]: >60 min
t½ Rabbit VH [2]: >60 min

Compound: CCCOC(=O)c1ccc(NC(=O)c2cccc(-c3cc(C(=O)Nc4ccncc4F)ccc3CN)c2)c(F)c1 [Compound 4, propyl 4-({3-[2-(aminomethyl)-5-[(3-fluoropyridin-4-yl)carbamoyl]phenyl]phenyl}amido)-3-fluorobenzoate]
t½ Rabbit AH [1]: >60 min
t½ Rabbit VH [2]: >60 min

Compound: COC(=O)c1ccc(NC(=O)c2cccc(-c3cc(C(=O)Nc4ccncc4F)ccc3CN)c2)c(F)c1 [Compound 2, methyl 4-({3-[2-(aminomethyl)-5-[(3-fluoropyridin-4-yl)carbamoyl]phenyl]phenyl}amido)-3-fluorobenzoate]
t½ Rabbit AH [1]: >60 min
t½ Rabbit VH [2]: >60 min

Compound: COC(=O)c1ccc(NC(=O)c2cccc(-c3cc(C(=O)Nc4ccncc4F)ccc3CN)c2)cc1 [Compound 1, methyl 4-({3-[2-(aminomethyl)-5-[(3-fluoropyridin-4-yl)carbamoyl]phenyl]phenyl}amido)benzoate]
t½ Rabbit AH [1]: >60 min
AUClast (intravenous exposure) ([3]; intravenous 0.1 mg/kg): 4.82 ± 0.276 ng·h/mL
clearance ([3]; intravenous 0.1 mg/kg): 15.4 L/h/kg
volume of distribution ([3]; intravenous 0.1 mg/kg): 100 L/kg
Cmax ([3]; intravenous 0.1 mg/kg, mouse plasma): 16.3 ng/mL
metabolism and excretion in words ([3]; mice, intravenous and oral): rapidly metabolized and excreted from the body very rapidly
AUClast ([3]; oral 1 mg/kg): 6.20 ± 5.50 ng·h/mL
Cmax ([3]; oral 1 mg/kg): 22.4 ± 22 ng/mL
percent oral bioavailability ([3]; oral 1 mg/kg vs intravenous 0.1 mg/kg): 12.9%
t1/2 in human hepatocytes (human hepatocytes): 14 min
% remaining (human hepatocytes; time 1 min): 100.0%
% remaining (human hepatocytes; time 30 min): 16.0 +/− 0.4%
% remaining (human hepatocytes; time 60 min): 4.8 +/− 0.1%
% remaining (human hepatocytes; time 120 min): 2.4 +/− 1.3%
t½ Rabbit VH [2]: >60 min

Compound: CCCOC(=O)c1ccc(NC(=O)c2cccc(-c3cc(C(=O)Nc4ccncc4F)ccc3CN)c2)cc1C [Compound 6, propyl 4-({3-[2-(aminomethyl)-5-[(3-fluoropyridin-4-yl)carbamoyl]phenyl]phenyl}amido)-2-methylbenzoate]
t½ Rabbit AH [1]: >60 min
t½ Rabbit VH [2]: >60 min

The next lines start with the values.

half-life at 1 μM [1]: > 60 min
half-life at 1 μM [2]: > 60 min
Compound: COC(=O)c1ccc(C(=O)Nc2cccc(-c3cc(C(=O)Nc4ccncc4F)ccc3CN)c2)cc1 [Compound 7, methyl 4-({3-[2-(aminomethyl)-5-[(3-fluoropyridin-4-yl)carbamoyl]phenyl]phenyl}carbamoyl)benzoate]

half-life at 1 μM [1]: > 60 min
half-life at 1 μM [2]: > 60 min
Compound: COC(=O)c1ccc(C(=O)Nc2cccc(-c3cc(C(=O)Nc4ccncc4F)ccc3CN)c2)nc1 [Compound 8, methyl 6-({3-[2-(aminomethyl)-5-[(3-fluoropyridin-4-yl)carbamoyl]phenyl]phenyl}carbamoyl)pyridine-3-carboxylate]

t½ Rabbit AH [1]: >60 min
t½ Rabbit VH [2]: >60 min
Compound: NCc1ccc(C(=O)Nc2ccncc2F)cc1-c1cccc(C(=O)Nc2ccc(C(=O)OCC3CCCO3)cc2)c1 (stereo not drawn) [Compound 10, oxolan-2-ylmethyl 4-({3-[2-(aminomethyl)-5-[(3-fluoropyridin-4-yl)carbamoyl]phenyl]phenyl}amido)benzoate]

t½ Rabbit AH [1]: >60 min
t½ Rabbit VH [2]: >60 min
Compound: COCCOC(=O)c1ccc(NC(=O)c2cccc(-c3cc(C(=O)Nc4ccncc4F)ccc3CN)c2)cc1 [Compound 9, 2-methoxyethyl 4-({3-[2-(aminomethyl)-5-[(3-fluoropyridin-4-yl)carbamoyl]phenyl]phenyl}amido)benzoate]
